Common to all, as to type: cell-based
Test [1] deals with T1, Nuclear factor erythroid 2-related factor 2 (Mus musculus) (UniProt Q60795).
T1 sequence (whole entry): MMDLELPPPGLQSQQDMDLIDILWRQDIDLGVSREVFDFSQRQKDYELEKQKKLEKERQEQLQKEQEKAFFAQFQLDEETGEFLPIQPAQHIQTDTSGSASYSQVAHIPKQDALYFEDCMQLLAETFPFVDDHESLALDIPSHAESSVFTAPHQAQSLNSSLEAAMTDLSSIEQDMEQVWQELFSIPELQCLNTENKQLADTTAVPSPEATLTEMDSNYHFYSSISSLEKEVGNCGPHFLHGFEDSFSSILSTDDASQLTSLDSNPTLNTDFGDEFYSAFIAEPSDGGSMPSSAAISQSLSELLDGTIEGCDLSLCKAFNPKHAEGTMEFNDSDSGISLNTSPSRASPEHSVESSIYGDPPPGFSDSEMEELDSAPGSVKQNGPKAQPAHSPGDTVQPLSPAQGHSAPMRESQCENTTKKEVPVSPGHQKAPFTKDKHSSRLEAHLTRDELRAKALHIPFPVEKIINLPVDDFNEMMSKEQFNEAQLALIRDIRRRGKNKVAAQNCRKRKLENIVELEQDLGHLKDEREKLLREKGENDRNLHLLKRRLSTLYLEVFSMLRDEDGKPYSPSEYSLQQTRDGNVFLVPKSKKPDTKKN
The experiment in a line: Induction of NRF2-ARE mediated HO-1 expression in mouse RAW264.7 cells at 100 uM after 2 hrs by Western blot analysis.

For test [2], the target named is T2, Toll-like receptor 4 (Mus musculus) (UniProt Q9QUK6).
T2 sequence (whole entry): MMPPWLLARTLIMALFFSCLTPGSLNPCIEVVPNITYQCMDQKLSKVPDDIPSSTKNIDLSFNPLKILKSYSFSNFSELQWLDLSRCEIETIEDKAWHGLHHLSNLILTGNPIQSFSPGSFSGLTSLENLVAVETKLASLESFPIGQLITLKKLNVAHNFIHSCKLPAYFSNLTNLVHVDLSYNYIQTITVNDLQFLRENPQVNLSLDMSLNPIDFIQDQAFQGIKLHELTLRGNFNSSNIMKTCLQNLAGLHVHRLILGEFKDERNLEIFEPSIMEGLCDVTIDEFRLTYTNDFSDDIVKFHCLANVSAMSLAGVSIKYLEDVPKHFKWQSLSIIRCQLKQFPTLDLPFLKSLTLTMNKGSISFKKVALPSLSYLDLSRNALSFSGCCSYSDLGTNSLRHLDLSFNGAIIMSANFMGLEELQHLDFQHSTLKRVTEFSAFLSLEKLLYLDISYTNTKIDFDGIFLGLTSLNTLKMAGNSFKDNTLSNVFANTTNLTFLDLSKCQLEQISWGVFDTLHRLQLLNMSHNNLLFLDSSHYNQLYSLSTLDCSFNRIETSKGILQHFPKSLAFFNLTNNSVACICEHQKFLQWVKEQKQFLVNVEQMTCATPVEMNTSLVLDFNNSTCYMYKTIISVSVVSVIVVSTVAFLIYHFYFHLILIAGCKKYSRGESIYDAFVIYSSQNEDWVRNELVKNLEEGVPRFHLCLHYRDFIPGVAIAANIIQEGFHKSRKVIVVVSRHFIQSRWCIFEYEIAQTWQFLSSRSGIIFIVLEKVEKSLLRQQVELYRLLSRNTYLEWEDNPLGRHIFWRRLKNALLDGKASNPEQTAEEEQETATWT
The experiment in a line: Inhibition of LPS binding to TLR4 in IFNgamma-stimulated mouse RAW264.7 cells assessed as effect on ratio of phosphorylated p38 to total p38 at 100 uM measured after 60 mins by Western blot analysis relative to beta-actin (reference value: 1.9).

Test [3] concerns the target T2, Toll-like receptor 4 (Mus musculus). The experiment in a line: Inhibition of LPS binding to TLR4 in IFNgamma-stimulated mouse RAW264.7 cells assessed as effect on ratio of phosphorylated JNK to total JNK at 100 uM measured after 30 mins by Western blot analysis relative to beta-actin (reference value: 2.3).

The source made the active and inactive calls. The calls are words filed in the database; no cut-off is given here.

These results are taken from ChEMBL document CHEMBL4261619, “Sentulic acid isolated from Sandoricum koetjape Merr attenuates lipopolysaccharide and interferon gamma co-stimulated nitric oxide production in murine macrophage RAW264 cells” (Bioorg Med Chem Lett, 2018).

With `C=C(C)[C@@H]1CC[C@]2(C)[C@H](CC=C3[C@@H]4CC(C)(C)CC[C@]4(C)CC[C@]32C(=O)O)[C@@]1(C)CCC(=O)O`, the result in test [1] was inactive. The figures for the fold change (FC) in test [2] and in test [3] were 2 and 1.5, respectively.
